Laboratory results as given in ChEMBL document CHEMBL1201862, “PubChem BioAssay data set” (2004).
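Protocol summary: plate cells (96-well), add compound at 5 concentrations, incubate 48 h, interpolate endpoints linearly. Abbreviation: GI50, concentration required for 50% inhibition of growth.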 Calls of active or inactive are those of the source. No stated cut-off is given here; in the data, active = GI50 up to about 1.1 µM and inactive = higher.

What was measured:
Experiment in all cases: growth of human tumour cells (NCI), 48 h
OVCAR-4 = tested on: OVCAR-4
RXF 393 = tested on: RXF 393
XF498 = tested on: XF498
DMS-273 = tested on: DMS-273
A498 = tested on: A498
MOLT-4 = tested on: MOLT-4
NCI/ADR-RES = tested on: NCI/ADR-RES
KM-20L2 = tested on: KM-20L2
SK-OV-3 = tested on: SK-OV-3
MCF7 = tested on: MCF7
HOP-18 = tested on: HOP-18
NCI-H460 = tested on: NCI-H460
SK-MEL-2 = tested on: SK-MEL-2
DLD-1 = tested on: DLD-1
IGROV-1 = tested on: IGROV-1
DU-145 = tested on: DU-145
T47D = tested on: T47D
MDA-MB-435 = tested on: MDA-MB-435
MDA-N = tested on: MDA-N

Row | SMILES | GI50 (OVCAR-4) | GI50 (RXF 393) | GI50 (XF498) | GI50 (DMS-273) | GI50 (A498) | GI50 (MOLT-4) | GI50 (NCI/ADR-RES) | GI50 (KM-20L2) | GI50 (SK-OV-3) | GI50 (MCF7) | GI50 (HOP-18) | GI50 (NCI-H460) | GI50 (SK-MEL-2) | GI50 (DLD-1) | GI50 (IGROV-1) | GI50 (DU-145) | GI50 (T47D) | GI50 (MDA-MB-435) | GI50 (MDA-N)
1 | COCCOCOc1ccc(OCc2ccccc2)cc1 | 35.7 µM (inactive) | > 100 µM (inactive) | > 100 µM (inactive) | > 94.6 µM (inactive) | > 58.5 µM (inactive) | 34 µM (inactive) | > 82.8 µM (inactive) | > 100 µM (inactive) | > 100 µM (inactive) | > 35.9 µM (inactive) | > 100 µM (inactive) | > 100 µM (inactive) | > 82.6 µM (inactive) | > 100 µM (inactive) | > 100 µM (inactive) | – | – | – | –
2 | CSc1nc(N)c2c(-c3ccccc3)c3c(nc2n1)CCCC3 | 29.6 µM (inactive) | 29.7 µM (inactive) | – | – | – | > 100 µM (inactive) | 33 µM (inactive) | – | 87.7 µM (inactive) | > 100 µM (inactive) | – | > 100 µM (inactive) | – | – | > 100 µM (inactive) | > 100 µM (inactive) | > 100 µM (inactive) | > 100 µM (inactive) | > 100 µM (inactive)
3 | NC(=O)Oc1ccccc1 [CARBAMIC ACID PHENYL ESTER] | > 100 µM (inactive) | > 100 µM (inactive) | – | – | > 100 µM (inactive) | > 100 µM (inactive) | > 100 µM (inactive) | – | > 100 µM (inactive) | > 100 µM (inactive) | – | > 100 µM (inactive) | – | – | – | > 100 µM (inactive) | > 100 µM (inactive) | > 100 µM (inactive) | > 100 µM (inactive)
4 | CC(=C/c1ccccc1)/C=C1/NC(=S)N(/C=C2\C(=O)Oc3ccccc3C2=O)C1=O | 34.9 µM (inactive) | 0.0664 µM (active) | – | – | 56.4 µM (inactive) | 38.1 µM (inactive) | 42.2 µM (inactive) | – | – | 39.7 µM (inactive) | – | 30.5 µM (inactive) | > 100 µM (inactive) | – | – | 45.8 µM (inactive) | 1.76 µM (inactive) | 45.1 µM (inactive) | 96.6 µM (inactive)
5 | N#CC1=C(N)N(c2ccccc2)C(c2ccco2)C1(C#N)C#N (centres undefined) | 21.3 µM (inactive) | 17.5 µM (inactive) | – | – | 21.8 µM (inactive) | 25.5 µM (inactive) | 27 µM (inactive) | – | 77.8 µM (inactive) | 17.4 µM (inactive) | – | – | 27.5 µM (inactive) | – | 19.2 µM (inactive) | 19.4 µM (inactive) | 15.2 µM (inactive) | 28.4 µM (inactive) | 27.8 µM (inactive)
